Active and inactive are the calls of the source. The calls are words filed in the database; no cut-off is given here.
How the values were obtained:
[1] = Reversal of multi-drug resistance in human KBV cells assessed as paclitaxel induced cytotoxicity by measuring cell survival at 10 uM measured after 72 hrs by MTT assay relative to control; type: functional
[2] = Cytotoxicity against human KBV cells assessed as paclitaxel induced cytotoxicity by measuring cell survival at 10 uM measured after 72 hrs by MTT assay relative to control; type: functional
[3] = Sensitization of paclitaxel-induced cytotoxicity against human KBV cells assessed as fold change in paclitaxel IC50 at 2.5 uM incubated for 72 hrs by MTT assay relative to paclitaxel alone; type: functional
[4] = Sensitization of paclitaxel-induced cytotoxicity against human KBV cells assessed as fold change in paclitaxel IC50 at 5 uM incubated for 72 hrs by MTT assay relative to paclitaxel alone; type: functional
[5] = Sensitization of paclitaxel-induced cytotoxicity against human KBV cells assessed as fold change in paclitaxel IC50 at 10 uM incubated for 72 hrs by MTT assay relative to paclitaxel alone; type: functional
[6] = Sensitization of vincristine -induced cytotoxicity against human KBV cells assessed as fold change in vincristine IC50 at 2.5 uM incubated for 72 hrs by MTT assay relative to vincristine alone; type: functional
[7] = Sensitization of vincristine -induced cytotoxicity against human KBV cells assessed as fold change in vincristine IC50 at 5 uM incubated for 72 hrs by MTT assay relative to vincristine alone; type: functional
[8] = Sensitization of vincristine -induced cytotoxicity against human KBV cells assessed as fold change in vincristine IC50 at 10 uM incubated for 72 hrs by MTT assay relative to vincristine alone; type: functional
[9] = target: ATP-dependent translocase ABCB1 (Homo sapiens, UniProt P08183); experiment: Induction of thermal stabilization of p-glycoprotein in human KBV cells at 50 uM pre-treated with cells for 24 hrs and measured after 2 hrs by CESTA; type: cell-based; details: 26 h
Chain of ATP-dependent translocase ABCB1 (P08183 whole entry): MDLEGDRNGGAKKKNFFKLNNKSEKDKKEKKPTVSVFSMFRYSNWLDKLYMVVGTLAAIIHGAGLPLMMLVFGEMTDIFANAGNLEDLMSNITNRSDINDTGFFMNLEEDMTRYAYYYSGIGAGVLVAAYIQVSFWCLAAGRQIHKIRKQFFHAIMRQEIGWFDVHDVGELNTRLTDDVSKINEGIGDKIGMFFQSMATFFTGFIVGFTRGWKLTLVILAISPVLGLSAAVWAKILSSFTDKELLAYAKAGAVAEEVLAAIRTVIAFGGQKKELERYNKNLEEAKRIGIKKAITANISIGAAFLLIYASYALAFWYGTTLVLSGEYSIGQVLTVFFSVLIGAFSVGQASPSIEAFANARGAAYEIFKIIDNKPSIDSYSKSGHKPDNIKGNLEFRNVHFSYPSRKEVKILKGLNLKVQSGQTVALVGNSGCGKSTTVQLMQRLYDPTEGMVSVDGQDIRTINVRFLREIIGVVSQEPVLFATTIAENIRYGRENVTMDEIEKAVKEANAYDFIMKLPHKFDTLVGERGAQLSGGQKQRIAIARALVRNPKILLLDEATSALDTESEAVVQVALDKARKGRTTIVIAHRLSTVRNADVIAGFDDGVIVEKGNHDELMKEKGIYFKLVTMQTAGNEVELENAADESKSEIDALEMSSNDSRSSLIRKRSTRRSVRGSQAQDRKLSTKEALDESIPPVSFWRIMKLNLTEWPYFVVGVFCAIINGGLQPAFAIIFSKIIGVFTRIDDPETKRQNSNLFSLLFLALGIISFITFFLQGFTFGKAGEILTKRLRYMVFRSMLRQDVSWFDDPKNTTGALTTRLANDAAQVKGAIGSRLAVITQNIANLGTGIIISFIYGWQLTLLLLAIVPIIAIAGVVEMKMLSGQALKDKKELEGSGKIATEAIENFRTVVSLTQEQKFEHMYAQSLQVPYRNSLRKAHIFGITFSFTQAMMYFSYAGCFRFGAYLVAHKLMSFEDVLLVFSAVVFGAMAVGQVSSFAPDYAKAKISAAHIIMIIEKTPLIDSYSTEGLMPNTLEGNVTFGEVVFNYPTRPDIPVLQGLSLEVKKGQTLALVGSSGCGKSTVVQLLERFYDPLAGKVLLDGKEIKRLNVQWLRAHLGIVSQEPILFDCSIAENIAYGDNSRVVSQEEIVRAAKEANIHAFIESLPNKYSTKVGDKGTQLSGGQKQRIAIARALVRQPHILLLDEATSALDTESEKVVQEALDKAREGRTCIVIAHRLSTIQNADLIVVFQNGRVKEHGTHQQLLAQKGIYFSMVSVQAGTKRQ

[10] = Drug accumulation in human KBV cells expressing p-glycoprotein at 10 uM measured after 4 hrs by UPLC-MS analysis; type: ADME, cell-based
KBv200 = experiment: Effect on p-glycoprotein expression level in human KBv200 cells at 2.5 to 10 uM measured after 4 hrs by Western blot analysis; type: functional, cell-based; details: dose 2.5-10 µM
KBV [11] = experiment: Induction of Rh123 accumulation in human KBV cells at 10 uM incubated for 150 mins by flow cytometry analysis; type: functional, cell-based
KBV [12] = experiment: Induction of cell cycle arrest in human KBV cells assessed as accumulation of cells at G2/M phase at 10 uM incubated for 24 hrs by PI staining based flow cytometry analysis; type: functional
KBV [13] = experiment: Induction of cell cycle arrest in human KBV cells assessed as accumulation of cells at G2/M phase at 10 uM in presence of paclitaxel incubated for 24 hrs by PI staining based flow cytometry analysis; type: functional
KBV [14] = experiment: Induction of apoptosis in human KBV cells in presence of paclitaxel incubated for 24 hrs by PI staining based flow cytometry analysis; type: functional, cell-based; details: dose 2.5-10 µM
KBV [15] = experiment: Anti-tumor activity against human KBV cells xenografted in male BALB/c nude mouse assessed as reduction in tumor volume at 10 mg/kg administered once daily for 18 days; type: functional, organism-based; details: time 18.0 day
[16] = Aqueous solubility of the compound in deionized water measured after 24 hrs by UV-vis spectrophotometric analysis; type: physicochemical; details: buffer
[17] = Drug accumulation in human KB cells […] at 10 uM measured after 4 hrs by UPLC-MS analysis; type: ADME, cell-based
KBV [18] = experiment: Induction of cell cycle arrest in human KBV cells assessed as accumulation of cells at G2/M phase in presence of paclitaxel incubated for 24 hrs by PI staining based flow cytometry analysis; type: functional; details: dose 2.5-10 µM

With `CC1(C)CC[C@]2(C(=O)NCCCC(=O)OCCOCCOCCOCCOCCOCCO)CC[C@]3(C)C(=CC[C@@H]4[C@@]5(C)Cc6nccnc6[C@@](C)(CO)[C@@H]5CC[C@]43C)[C@@H]2C1` the Activity [1] was 17.01%, the Activity [2] was 86% and the “fold change (FC)” value [3] was 2.72. The “fold change (FC)” value [4] was 6.12, the “fold change (FC)” value [5] was 103.51 and the “fold change (FC)” value [6] was 2.43. The “fold change (FC)” value [7] was 6.09, the “fold change (FC)” value [8] was 14.41 and the Activity [9] was “Active”. For the same molecule, the Drug uptake [10] was “Active”, the Activity (KBv200) was “inactive” and the Activity (KBV [11]) was “Active”. For the same molecule, the Activity (KBV [12]) was “inactive”, the Activity (KBV [13]) was “Active” and the Activity (KBV [14]) was “Dose-dependent-effect”. The Activity (KBV [15]) was “inactive”, the solubility [16] was “soluble” and the Drug uptake [17] was “Active”. For the same molecule, the Activity (KBV [18]) was “Dose-dependent-effect”.

— ChEMBL document CHEMBL6109086, “Discovery and biological evaluation of hederagenin derivatives as non-substrate inhibitors of P-glycoprotein-mediated multidrug resistance” (Eur J Med Chem, 2025)
